Measured values as given in US20060167104A1, “Method for extracting a novel compound from the root of a plant of the pentadiplandraceae family and use of N,N'-dibenzylthiourea as a medicine” (priority 2002, published 2006).

How the values were obtained:
[1] = Fentom method: degradation of deoxyribose by free radicals from xanthine/xanthine oxidase, malondialdehyde measured by colorimetry; assay type: biochemical; details: in relation to the control containing no free hydroxyl radical trapper
Protocol: We used the Fentom method. This method is based on the degradation of deoxyribose by free radicals generated by the xanthine/xanthine oxidase system. This degradation leads to the formation of malondialdehyde which is measured by colorimetry.
In this technique, the trapping of free hydroxyl radicals is translated into a decrease in the formation of malondialdehyde.
N,N′-dibenzylthiourea in solutions of concentration 20, 10 and 5% decreases the production of malondialdehyde by 65, 59 and 51% respectively in relation to the control containing no free hydroxyl radical trapper.

[2] = Toxicity statement

Compound: S=C(NCc1ccccc1)NCc1ccccc1 [N,N′-dibenzylthiourea]
- decrease in the production of malondialdehyde ([1]; solution of concentration 5%): 51%
- decrease in the production of malondialdehyde ([1]; solution of concentration 10%): 59%
- decrease in the production of malondialdehyde ([1]; solution of concentration 20%): 65%
- toxicity [2]: non-toxic
